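How tested: cells in 96-well plates exposed to compound for 48 hours at five concentrations. At the GI50, growth is halved.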 The source made the active and inactive calls. No stated cut-off is given here; in the data, active = GI50 up to about 1.1 µM and inactive = higher.
How the values were obtained:
Test in all cases: growth of human tumour cells (NCI), 48 h
HCT-116 = test system: HCT-116
HT-29 = test system: HT-29
OVCAR-8 = test system: OVCAR-8
RPMI-8226 = test system: RPMI-8226
SK-MEL-5 = test system: SK-MEL-5
COLO 205 = test system: COLO 205
MDA-MB-231 = test system: MDA-MB-231
PC-3 = test system: PC-3
SR = test system: SR
U-251 = test system: U-251
MDA-N = test system: MDA-N
SF-268 = test system: SF-268
ACHN = test system: ACHN
HOP-62 = test system: HOP-62
SNB-19 = test system: SNB-19
RXF 393 = test system: RXF 393
SF-539 = test system: SF-539
HCT-15 = test system: HCT-15
MCF7 = test system: MCF7
BT-549 = test system: BT-549
HL-60 = test system: HL-60
Hs-578T = test system: Hs-578T
T47D = test system: T47D
TK-10 = test system: TK-10
OVCAR-3 = test system: OVCAR-3
DU-145 = test system: DU-145
KM12 = test system: KM12
OVCAR-4 = test system: OVCAR-4
UO-31 = test system: UO-31
A549 = test system: A549
SNB-75 = test system: SNB-75
MOLT-4 = test system: MOLT-4
NCI-H460 = test system: NCI-H460
786-0 = test system: 786-0
SK-MEL-28 = test system: SK-MEL-28
NCI-H226 = test system: NCI-H226
A498 = test system: A498
SN12C = test system: SN12C
SW-620 = test system: SW-620
OVCAR-5 = test system: OVCAR-5
LOX IMVI = test system: LOX IMVI
NCI/ADR-RES = test system: NCI/ADR-RES
UACC-62 = test system: UACC-62
Malme-3M = test system: Malme-3M
SF-295 = test system: SF-295
M14 = test system: M14
UACC-257 = test system: UACC-257
EKVX = test system: EKVX
CAKI-1 = test system: CAKI-1
SK-MEL-2 = test system: SK-MEL-2
NCI-H23 = test system: NCI-H23
HCC 2998 = test system: HCC 2998
K562 = test system: K562
CCRF-CEM = test system: CCRF-CEM
SK-OV-3 = test system: SK-OV-3
MDA-MB-435 = test system: MDA-MB-435
HOP-92 = test system: HOP-92
NCI-H522 = test system: NCI-H522
IGROV-1 = test system: IGROV-1

## CN(C)c1nc(NC23CC4CC(CC(C4)C2)C3)nc(N(C)C)n1
HCT-116
  GI50: 20.7 µM (inactive)
HT-29
  GI50: 26.6 µM (inactive)
OVCAR-8
  GI50: > 53.3 µM (inactive)
RPMI-8226
  GI50: 3.58 µM (inactive)
SK-MEL-5
  GI50: 11.1 µM (inactive)
COLO 205
  GI50: 11.7 µM (inactive)
MDA-MB-231
  GI50: 9.98 µM (inactive)
PC-3
  GI50: 8.32 µM (inactive)
SR
  GI50: 14.5 µM (inactive)
U-251
  GI50: 9.1 µM (inactive)
MDA-N
  GI50: 8.67 µM (inactive)
SF-268
  GI50: > 42.1 µM (inactive)
ACHN
  GI50: 22.3 µM (inactive)
HOP-62
  GI50: 15.7 µM (inactive)
SNB-19
  GI50: 14.9 µM (inactive)
RXF 393
  GI50: 3.48 µM (inactive)
SF-539
  GI50: 21.8 µM (inactive)
HCT-15
  GI50: 5.15 µM
MCF7
  GI50: 8.15 µM (inactive)
BT-549
  GI50: 21.4 µM (inactive)
HL-60
  GI50: 3.61 µM (inactive)
Hs-578T
  GI50: 16.3 µM (inactive)
T47D
  GI50: 7.29 µM (inactive)
TK-10
  GI50: 35.6 µM (inactive)
OVCAR-3
  GI50: 17.2 µM (inactive)
DU-145
  GI50: 16.4 µM (inactive)
KM12
  GI50: 5.66 µM (inactive)
OVCAR-4
  GI50: > 100 µM (inactive)
UO-31
  GI50: 31.4 µM (inactive)
A549
  GI50: 8.59 µM (inactive)
SNB-75
  GI50: 7.35 µM (inactive)
MOLT-4
  GI50: 10 µM (inactive)
NCI-H460
  GI50: 16.6 µM (inactive)
786-0
  GI50: 15.7 µM (inactive)
SK-MEL-28
  GI50: 22 µM (inactive)
NCI-H226
  GI50: 20.4 µM (inactive)
A498
  GI50: > 54 µM (inactive)
SN12C
  GI50: 27.2 µM (inactive)
SW-620
  GI50: 12.3 µM (inactive)
OVCAR-5
  GI50: 10.2 µM (inactive)
LOX IMVI
  GI50: 3.36 µM (inactive)
NCI/ADR-RES
  GI50: 23.4 µM (inactive)
UACC-62
  GI50: 25.8 µM (inactive)
Malme-3M
  GI50: 33.1 µM (inactive)
SF-295
  GI50: 6.28 µM (inactive)
M14
  GI50: 13.1 µM (inactive)
UACC-257
  GI50: 31.3 µM (inactive)
EKVX
  GI50: 11.3 µM (inactive)
CAKI-1
  GI50: 37.6 µM (inactive)
SK-MEL-2
  GI50: 20.1 µM (inactive)
NCI-H23
  GI50: 9.33 µM (inactive)
HCC 2998
  GI50: > 27.5 µM (inactive)
K562
  GI50: 2.81 µM (inactive)
CCRF-CEM
  GI50: 5.06 µM (inactive)
SK-OV-3
  GI50: > 26.1 µM (inactive)
MDA-MB-435
  GI50: 21.4 µM (inactive)
HOP-92
  GI50: 10.6 µM (inactive)

## O=C(NC(=O)c1cc(-c2ccccc2)n[nH]1)c1ccccc1
HCT-116
  GI50: > 100 µM (inactive)
HT-29
  GI50: > 100 µM (inactive)
OVCAR-8
  GI50: > 100 µM (inactive)
SK-MEL-5
  GI50: > 100 µM (inactive)
COLO 205
  GI50: > 100 µM (inactive)
MDA-MB-231
  GI50: > 100 µM (inactive)
PC-3
  GI50: > 100 µM (inactive)
SR
  GI50: 24 µM (inactive)
U-251
  GI50: > 100 µM (inactive)
MDA-N
  GI50: > 100 µM (inactive)
SF-268
  GI50: > 100 µM (inactive)
ACHN
  GI50: > 100 µM (inactive)
HOP-62
  GI50: 64.9 µM (inactive)
RXF 393
  GI50: > 100 µM (inactive)
NCI-H522
  GI50: 70.8 µM (inactive)
SF-539
  GI50: > 100 µM (inactive)
HCT-15
  GI50: > 100 µM
MCF7
  GI50: > 100 µM (inactive)
BT-549
  GI50: > 100 µM (inactive)
Hs-578T
  GI50: > 100 µM (inactive)
T47D
  GI50: > 100 µM (inactive)
TK-10
  GI50: > 100 µM (inactive)
OVCAR-3
  GI50: > 100 µM (inactive)
DU-145
  GI50: > 100 µM (inactive)
KM12
  GI50: > 100 µM (inactive)
OVCAR-4
  GI50: > 100 µM (inactive)
UO-31
  GI50: > 100 µM (inactive)
A549
  GI50: > 100 µM (inactive)
SNB-75
  GI50: 26.5 µM (inactive)
MOLT-4
  GI50: > 100 µM (inactive)
NCI-H460
  GI50: > 100 µM (inactive)
786-0
  GI50: > 100 µM (inactive)
IGROV-1
  GI50: > 100 µM (inactive)
SK-MEL-28
  GI50: > 100 µM (inactive)
NCI-H226
  GI50: > 100 µM (inactive)
A498
  GI50: > 100 µM (inactive)
SN12C
  GI50: > 100 µM (inactive)
SW-620
  GI50: > 100 µM (inactive)
OVCAR-5
  GI50: > 100 µM (inactive)
LOX IMVI
  GI50: > 100 µM (inactive)
NCI/ADR-RES
  GI50: > 100 µM (inactive)
UACC-62
  GI50: > 100 µM (inactive)
SF-295
  GI50: > 100 µM (inactive)
M14
  GI50: > 100 µM (inactive)
UACC-257
  GI50: > 100 µM (inactive)
EKVX
  GI50: > 100 µM (inactive)
CAKI-1
  GI50: > 100 µM (inactive)
SK-MEL-2
  GI50: > 100 µM (inactive)
NCI-H23
  GI50: > 100 µM (inactive)
HCC 2998
  GI50: > 100 µM (inactive)
K562
  GI50: 77.8 µM (inactive)
CCRF-CEM
  GI50: > 100 µM (inactive)
SK-OV-3
  GI50: > 100 µM (inactive)
MDA-MB-435
  GI50: > 100 µM (inactive)
HOP-92
  GI50: > 100 µM (inactive)

— ChEMBL document CHEMBL1201862, “PubChem BioAssay data set” (2004)
